In ChEMBL document CHEMBL1201862, “PubChem BioAssay data set” (2004):
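Five compound concentrations were applied to cells in 96-well plates for 48 hours; endpoints were derived by simple linear interpolation of the resulting dose-response curve. Here, GI50 denotes the concentration required for 50% inhibition of growth.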 Active and inactive are the calls of the source. Cut-off read from the data, not from the text of the source: active = GI50 up to about 1.1 µM and inactive = higher.

How the values were obtained:
Experiment in all cases: NCI tumour cell line growth inhibition, 48 h
CAKI-1 = system: CAKI-1
CCRF-CEM = system: CCRF-CEM
COLO 205 = system: COLO 205
HT-29 = system: HT-29
K562 = system: K562
M14 = system: M14
NCI-H460 = system: NCI-H460
OVCAR-4 = system: OVCAR-4
OVCAR-5 = system: OVCAR-5
SF-539 = system: SF-539
SW-620 = system: SW-620
TK-10 = system: TK-10
UO-31 = system: UO-31
XF498 = system: XF498
A498 = system: A498
LXFL 529 = system: LXFL 529
SK-MEL-5 = system: SK-MEL-5
MDA-MB-231 = system: MDA-MB-231
MDA-N = system: MDA-N
NCI/ADR-RES = system: NCI/ADR-RES

Compound	GI50 (CAKI-1)	GI50 (CCRF-CEM)	GI50 (COLO 205)	GI50 (HT-29)	GI50 (K562)	GI50 (M14)	GI50 (NCI-H460)	GI50 (OVCAR-4)	GI50 (OVCAR-5)	GI50 (SF-539)	GI50 (SW-620)	GI50 (TK-10)	GI50 (UO-31)	GI50 (XF498)	GI50 (A498)	GI50 (LXFL 529)	GI50 (SK-MEL-5)	GI50 (MDA-MB-231)	GI50 (MDA-N)	GI50 (NCI/ADR-RES)
Cc1cc(N)c(C)c2c1[nH]c1ccc(O)cc12	> 100 µM (inactive)	20.7 µM (inactive)	47.9 µM (inactive)	> 100 µM (inactive)	35 µM (inactive)	> 100 µM (inactive)	> 100 µM (inactive)	> 100 µM (inactive)	> 100 µM (inactive)	> 100 µM (inactive)	39.1 µM (inactive)	66.8 µM (inactive)	> 100 µM (inactive)	56.4 µM (inactive)	–	–	–	–	–	–
O=C1C2ON3c4ccccc4C(=O)C3(c3ccccc3)C2C(=O)N1c1ccccc1 (stereo unspecified)	–	> 100 µM (inactive)	> 100 µM (inactive)	> 100 µM (inactive)	> 100 µM (inactive)	> 100 µM (inactive)	–	> 100 µM (inactive)	–	> 100 µM (inactive)	> 100 µM (inactive)	–	> 100 µM (inactive)	> 100 µM (inactive)	> 100 µM (inactive)	> 100 µM (inactive)	> 100 µM (inactive)	–	–	–
Cc1c(-c2nnc(-c3ccccc3)o2)c(=O)n(-c2ccccc2)n1C	–	> 100 µM (inactive)	> 100 µM (inactive)	> 100 µM (inactive)	> 100 µM (inactive)	> 100 µM (inactive)	> 100 µM (inactive)	> 100 µM (inactive)	–	> 100 µM (inactive)	> 100 µM (inactive)	> 100 µM (inactive)	> 100 µM (inactive)	> 100 µM (inactive)	> 100 µM (inactive)	> 100 µM (inactive)	–	–	–	–
On1c(-c2ccccc2)c(-c2ccccc2N2CCCC2)c2ccccc21	> 100 µM (inactive)	> 100 µM (inactive)	> 100 µM (inactive)	> 100 µM (inactive)	> 100 µM (inactive)	> 100 µM (inactive)	> 100 µM (inactive)	> 100 µM (inactive)	> 100 µM (inactive)	> 100 µM (inactive)	> 100 µM (inactive)	> 100 µM (inactive)	–	> 100 µM (inactive)	> 100 µM (inactive)	–	> 100 µM (inactive)	–	–	–
CC(=O)OC(C)(C)C1CCC(C)(C(O)COc2ccc(CCNC(=O)c3ccccc3)cc2)O1 (stereo unspecified)	> 100 µM (inactive)	21.6 µM (inactive)	> 100 µM (inactive)	> 100 µM (inactive)	–	28.6 µM (inactive)	61.8 µM (inactive)	63.2 µM (inactive)	> 100 µM (inactive)	60.8 µM (inactive)	> 100 µM (inactive)	63.8 µM (inactive)	33.7 µM (inactive)	10.5 µM (inactive)	–	25.1 µM (inactive)	11.6 µM (inactive)	–	–	–
O=c1ccn([C@H]2CSC[C@@H](CO)C2)c(=O)[nH]1	> 100 µM (inactive)	> 100 µM (inactive)	–	> 100 µM (inactive)	> 100 µM (inactive)	> 100 µM (inactive)	> 100 µM (inactive)	> 100 µM (inactive)	> 100 µM (inactive)	> 100 µM (inactive)	> 100 µM (inactive)	> 100 µM (inactive)	> 100 µM (inactive)	–	> 100 µM (inactive)	> 100 µM (inactive)	> 100 µM (inactive)	–	–	–
CC(=O)OCC1OC(Sc2ccccn2)C=CC1OC(C)=O (stereo unspecified)	–	> 100 µM (inactive)	> 100 µM (inactive)	> 100 µM (inactive)	> 100 µM (inactive)	> 100 µM (inactive)	–	> 100 µM (inactive)	> 100 µM (inactive)	> 100 µM (inactive)	> 100 µM (inactive)	> 100 µM (inactive)	> 100 µM (inactive)	> 100 µM (inactive)	> 100 µM (inactive)	> 100 µM (inactive)	> 100 µM (inactive)	–	–	–
Cc1ccc(NC(=O)/C(=N/NC(=O)C[N+](C)(C)C)c2nc3ccccc3nc2O)cc1	> 100 µM (inactive)	–	76.9 µM (inactive)	91.4 µM (inactive)	–	> 100 µM (inactive)	> 100 µM (inactive)	> 100 µM (inactive)	> 100 µM (inactive)	> 100 µM (inactive)	15.7 µM (inactive)	> 100 µM (inactive)	> 100 µM (inactive)	–	> 100 µM (inactive)	> 100 µM (inactive)	> 100 µM (inactive)	–	–	–
C=CC1=C(C)/C(=C/C2=NC(=C\c3[nH]c(CC4NC(=O)C(C)/C4=C\C)c(C)c3CCC(=O)O)/C(CC(=O)O)=C2C)NC1=O (stereo unspecified)	> 100 µM (inactive)	> 100 µM (inactive)	> 100 µM (inactive)	> 100 µM (inactive)	> 100 µM (inactive)	> 100 µM (inactive)	> 100 µM (inactive)	> 100 µM (inactive)	> 100 µM (inactive)	> 100 µM (inactive)	> 100 µM (inactive)	> 100 µM (inactive)	> 100 µM (inactive)	> 100 µM (inactive)	–	> 100 µM (inactive)	–	–	–	–
CC[n+]1c(/C=C/c2cc(C(=O)OC)n3c2sc2ccccc23)sc2ccccc21	–	0.214 µM (active)	22.9 µM (inactive)	16.6 µM (inactive)	–	18.8 µM (inactive)	16.2 µM (inactive)	17.8 µM (inactive)	20.8 µM (inactive)	18.2 µM (inactive)	–	–	17.5 µM (inactive)	13.3 µM (inactive)	–	13.8 µM (inactive)	15 µM (inactive)	–	–	–
COc1ccc(OCC(=O)O)c2c1CCC(C)C2=O (stereo unspecified)	> 100 µM (inactive)	> 100 µM (inactive)	> 100 µM (inactive)	> 100 µM (inactive)	> 100 µM (inactive)	> 100 µM (inactive)	> 100 µM (inactive)	> 100 µM (inactive)	> 100 µM (inactive)	> 100 µM (inactive)	> 100 µM (inactive)	> 100 µM (inactive)	> 100 µM (inactive)	> 100 µM (inactive)	> 100 µM (inactive)	–	> 100 µM (inactive)	–	–	–
CC(=O)Oc1ccc(/C=C/C(=O)OCCOC(=O)/C=C/c2ccc(OC(C)=O)c(OC(C)=O)c2)cc1OC(C)=O	3.26 µM (inactive)	1.25 µM (inactive)	14.1 µM (inactive)	18.6 µM (inactive)	4.89 µM (inactive)	10.8 µM (inactive)	11.9 µM (inactive)	4.63 µM (inactive)	14.6 µM (inactive)	2.72 µM (inactive)	9.38 µM (inactive)	10.2 µM (inactive)	4.01 µM (inactive)	–	22 µM (inactive)	–	7.36 µM (inactive)	14.5 µM (inactive)	7.14 µM (inactive)	4.06 µM (inactive)
CCCCCCC1CCC2CCCC(C)N12 (stereo unspecified)	> 100 µM (inactive)	19 µM (inactive)	16 µM (inactive)	> 10 µM (inactive)	13.8 µM (inactive)	25.3 µM (inactive)	23.7 µM (inactive)	46.2 µM (inactive)	–	76 µM (inactive)	14.8 µM (inactive)	39.2 µM (inactive)	19.7 µM (inactive)	19.4 µM (inactive)	–	> 10 µM (inactive)	49.8 µM (inactive)	–	–	–
CS(=O)(=O)c1ccc(-c2cc(-c3ccc(S(C)(=O)=O)cc3)[n+](-c3cc(-c4ccccc4)c([O-])c(-c4ccccc4)c3)c(-c3ccc(S(C)(=O)=O)cc3)c2)cc1	> 100 µM (inactive)	–	> 100 µM (inactive)	> 100 µM (inactive)	> 100 µM (inactive)	> 100 µM (inactive)	> 100 µM (inactive)	> 100 µM (inactive)	> 100 µM (inactive)	> 100 µM (inactive)	> 100 µM (inactive)	> 100 µM (inactive)	> 100 µM (inactive)	> 100 µM (inactive)	44.7 µM (inactive)	> 100 µM (inactive)	–	–	–	–
CCOP(=O)(CN1CCNCCNCC1)OCC	> 100 µM (inactive)	> 100 µM (inactive)	> 100 µM (inactive)	> 100 µM (inactive)	> 100 µM (inactive)	> 100 µM (inactive)	> 100 µM (inactive)	> 100 µM (inactive)	> 100 µM (inactive)	> 100 µM (inactive)	> 100 µM (inactive)	> 100 µM (inactive)	> 100 µM (inactive)	–	> 100 µM (inactive)	–	> 100 µM (inactive)	> 100 µM (inactive)	> 100 µM (inactive)	> 100 µM (inactive)
Cc1cc2c(cc1C)C(=O)C1(C2)Cc2cc3c(cc2C1=O)CCC3 (stereo unspecified)	> 100 µM (inactive)	> 100 µM (inactive)	> 100 µM (inactive)	> 100 µM (inactive)	> 100 µM (inactive)	44.1 µM (inactive)	> 100 µM (inactive)	> 100 µM (inactive)	> 100 µM (inactive)	4.95 µM (inactive)	> 100 µM (inactive)	> 100 µM (inactive)	> 100 µM (inactive)	–	> 100 µM (inactive)	–	> 100 µM (inactive)	> 10 µM (inactive)	> 100 µM (inactive)	> 100 µM (inactive)
N#Cc1cc([N+](=O)[O-])ccc1NC(=O)/C(=N/N)C(C(=O)c1ccc(Cl)c(Cl)c1)C1OC(=O)c2ccccc21 (stereo unspecified)	38.1 µM (inactive)	38.9 µM (inactive)	> 100 µM (inactive)	81.3 µM (inactive)	24.3 µM (inactive)	–	35.8 µM (inactive)	30.8 µM (inactive)	47.2 µM (inactive)	67.5 µM (inactive)	95.7 µM (inactive)	–	49.9 µM (inactive)	–	29.4 µM (inactive)	43 µM (inactive)	63.7 µM (inactive)	–	–	–
